Assay results as given in article PMC3193053 (Analytical chemistry, 2011).

tested on: VHH T9; assay: Cross-reactivity of the TCC competitive ELISA set up with VHH T9; type: binding, Lama glama; settings: CR% = IC50 (TCC) ÷ IC50 (cross-reacting compound) × 100

Row | Compound | CR (%)
1 | O=C(Nc1ccc(Cl)c(Cl)c1)Nc1ccc(Cl)cc1O [2′-OH TCC] | 16.9%
2 | O=C(Nc1ccc(Cl)c(Cl)c1)Nc1ccc(Cl)c(Cl)c1 [3,3′,4,4′-Tetrachloro-carbanilide] | 2.46%
3 | O=C(Nc1ccc(Cl)cc1)Nc1ccc(Cl)c(C(F)(F)F)c1 [3-Trifluoromethyl-4,4′-dichlorocarbanilide] | 6.97%
4 | O=C(Nc1ccc(Cl)cc1)Nc1ccc(Cl)cc1 [4,4′-Dichlorocarbanilide] | 13.3%
5 | O=C(Nc1ccccc1)Nc1ccccc1 [Carbanilide] | 1.78%
6 | O=C(Nc1ccc(Cl)c(Cl)c1)Nc1ccc(Cl)cc1OS(=O)(=O)O [Sulfate of 2′-OH TCC] | <0.1%
7 | O=C(Nc1ccc(Cl)cc1)Nc1ccc(Cl)c(Cl)c1 [TCC, 3,4,4′-trichlorocarbanilide] | 100%
8 | Oc1cc(Cl)ccc1Oc1ccc(Cl)cc1Cl [Triclosan] | <0.1%
9 | CC(=O)N1CCC(NC(=O)Nc2ccc(OC(F)(F)F)cc2)CC1 [sEHi, #1555] | <0.1%
10 | CS(=O)(=O)N1CCC(NC(=O)Nc2ccc(OC(F)(F)F)cc2)CC1 [sEHi, #1709] | <0.1%
11 | Dinuron | <0.1%
